pIC50: −log10 of the molar value.
Assays:
Conditions in all cases: ATP=10 uM, sample concentration=100 nM
[1] = biological target: T1, PI3 Kinase (p110α/p85α) (h) (Homo sapiens, UniProt P42336); assay: Inhibition of phosphatidylinositol 3-kinase alpha (PI3K α), pAkt Western blotting in EGF-stimulated MDA-MB-453 cells; format: cell-based
T1 construct: endogenous in cells; host or cells: MDA-MB-453
Method: The inhibition of phosphatidylinositol 3 kinase alpha (PI3K α) by those compounds prepared in Examples 1˜98 was investigated by the following experiment. The inhibition activity of each compound was measured in the following conditions: ATP=10 uM, and sample concentration=100 nM.
Human breast cancer cells (MDA-MB-453) cultured in DMEM (Dulbecco's Modified Eagle Medium, Hyclon, SH30243.01) supplemented with 10% fetal bovine serum (Hyclon, USA) were distributed in a 12-well plate at the density of 1,000,000 cells/well. The cells were stabilized in a 37° C. CO2 for 24 hours and then treated with each compound for 1 and half hours. The cells were treated with 10 ng/mL of EGF (Epidermal Growth Factor, 10 μg/mL; R&D, 2150-C5) to increase the intracellular activity of PI3K alpha. 5 minutes later, the medium was discarded and the cells were washed with cold PBS (phosphate buffered saline, Gibco, 14190-250). PBS was then eliminated completely by using a pipette. Western blotting was performed as described in step 2 to evaluate the intracellular PI3K alpha activity.
(§1) The stimulated cells were transferred in a 1.5 mL tube, followed by centrifugation at 3000 rpm for 1 minute. 100 μL of RIPA buffer (radioimmunoprecipitation assay buffer, 50 mM Tris-HCl, 5 mM EDTA, 150 mM NaCl, 1% NP-40, 1 mM PMSF, pH 8.0; ELPIS, Korea) was added thereto, which was stored in a 4° C. refrigerator for 12 hours. Centrifugation was performed at 4° C. at 14,000 rpm for 20 minutes. The supernatant was transferred into a new 1.5 mL tube. Protein was quantified by BCA (bicinchoninic acid) method and samples were prepared. The composition of the sample was as follows: sample buffer (ELPIS, EBA-1052) 5×, protein 10 μg, and 1× sample buffer to make the total volume 20 μL. The sample was heated at 100° C. for 5 minutes. The evaporated water vapor was condensed in a refrigerator. The liquid stained on the wall was fallen down by centrifugation for a few seconds. The sample proceeded to 10% SDS (Sodium Dodecyl Sulfate) acrylamide gel for separation. The separated protein was transferred onto PVDF (poly-vinyl difluoride) membrane, followed by reaction with pAkt (phospho protein kinase B) antibody (Ser473 or Thr308; Cell signaling, 9271s or 13038s) for 12 hours at 4° C. The membrane was washed with TBST (Tris-Buffered Saline with Tween 20, 10 mM Tris-HCl, pH 7.5, 150 mM NaCl, 0.1% Tween-20) three times for 5 minutes each, to which the secondary antibody (rabbit antibody, Santacruz, sc-2004) was added, followed by reaction at room temperature for 2 hours. The membrane was washed with TBST three times for 10 minutes each, to which ECL (enhanced chemiluminescence, Thermo, NCI34095KR) was sprayed. Bands were investigated by using LAS-3000.

[2] = biological target: T2, PI3 Kinase (p110β/p86α) (h) (Homo sapiens, UniProt P42338); assay: Inhibition of phosphatidylinositol 3-kinase beta (PI3K β), pAkt Western blotting in LPA-stimulated PC3 cells; format: cell-based
T2 construct: endogenous in cells; host or cells: PC3
Method: as §1
The inhibition of phosphatidylinositol 3 kinase beta (PI3K β) by those compounds prepared in Examples 1˜98 was investigated by the following experiment. The inhibition activity of each compound was measured in the following conditions: ATP=10 uM, and sample concentration=100 nM.
Human prostate cancer cells (PC3 cells) cultured in DMEM (Dulbecco's Modified Eagle Medium, Hyclon, SH30243.01) supplemented with 10% fetal bovine serum (Hyclon, USA) were distributed in a 12-well plate at the density of 1,000,000 cells/well. The cells were stabilized in a 37° C. CO2 for 24 hours and then treated with each compound for 1 and half hours. The cells were treated with 10 ng/mL of LPA (lysophosphatidic acid, 10 μg/mL; R&D, 2150-05) to increase the intracellular activity of PI3K beta. 5 minutes later, the medium was discarded and the cells were washed with cold PBS (phosphate buffered saline, Gibco, 14190-250). PBS was then eliminated completely by using a pipette. Western blotting was performed according to the same manner as described in step 2 of Experimental Example 1 to evaluate the intracellular PI3K beta activity.

[3] = biological target: T3, PI3 Kinase (p120γ) (h) (Homo sapiens, UniProt P48736); assay: Inhibition of phosphatidylinositol 3-kinase gamma (PI3K γ), pAkt Western blotting in C5a-stimulated RAW264.7 macrophages; format: cell-based, mouse
T3 construct: endogenous in cells; host or cells: RAW264.7
Outline: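 Enzyme: PI3Kγ activity measured at ATP=10 uM with compound at 100 nM. Cellular: RAW264.7 macrophages treated with compound 1.5 h, then stimulated with 10 ng/mL C5a for 5 min; lysates (10 μg protein) probed by Western blot for pAkt (Ser473 or Thr308), ECL detection.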

[4] = biological target: T4, PI3 Kinase (p110δ/p85α) (h) (Homo sapiens, UniProt O00329); assay: Inhibition of phosphatidylinositol 3-kinase delta (PI3K δ), pAkt Western blotting in IgM-stimulated Raji cells; format: cell-based
T4 construct: endogenous in cells; host or cells: Raji
Outline: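 Raji cells were treated with compound for 1.5 h, then stimulated with 0.25 μg/mL IgM for 30 min to activate PI3Kδ. Lysates were Western blotted for pAkt (Ser473 or Thr308) with ECL detection. Conditions stated: ATP=10 uM, sample concentration=100 nM.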

T2 sequence (P42338 whole entry): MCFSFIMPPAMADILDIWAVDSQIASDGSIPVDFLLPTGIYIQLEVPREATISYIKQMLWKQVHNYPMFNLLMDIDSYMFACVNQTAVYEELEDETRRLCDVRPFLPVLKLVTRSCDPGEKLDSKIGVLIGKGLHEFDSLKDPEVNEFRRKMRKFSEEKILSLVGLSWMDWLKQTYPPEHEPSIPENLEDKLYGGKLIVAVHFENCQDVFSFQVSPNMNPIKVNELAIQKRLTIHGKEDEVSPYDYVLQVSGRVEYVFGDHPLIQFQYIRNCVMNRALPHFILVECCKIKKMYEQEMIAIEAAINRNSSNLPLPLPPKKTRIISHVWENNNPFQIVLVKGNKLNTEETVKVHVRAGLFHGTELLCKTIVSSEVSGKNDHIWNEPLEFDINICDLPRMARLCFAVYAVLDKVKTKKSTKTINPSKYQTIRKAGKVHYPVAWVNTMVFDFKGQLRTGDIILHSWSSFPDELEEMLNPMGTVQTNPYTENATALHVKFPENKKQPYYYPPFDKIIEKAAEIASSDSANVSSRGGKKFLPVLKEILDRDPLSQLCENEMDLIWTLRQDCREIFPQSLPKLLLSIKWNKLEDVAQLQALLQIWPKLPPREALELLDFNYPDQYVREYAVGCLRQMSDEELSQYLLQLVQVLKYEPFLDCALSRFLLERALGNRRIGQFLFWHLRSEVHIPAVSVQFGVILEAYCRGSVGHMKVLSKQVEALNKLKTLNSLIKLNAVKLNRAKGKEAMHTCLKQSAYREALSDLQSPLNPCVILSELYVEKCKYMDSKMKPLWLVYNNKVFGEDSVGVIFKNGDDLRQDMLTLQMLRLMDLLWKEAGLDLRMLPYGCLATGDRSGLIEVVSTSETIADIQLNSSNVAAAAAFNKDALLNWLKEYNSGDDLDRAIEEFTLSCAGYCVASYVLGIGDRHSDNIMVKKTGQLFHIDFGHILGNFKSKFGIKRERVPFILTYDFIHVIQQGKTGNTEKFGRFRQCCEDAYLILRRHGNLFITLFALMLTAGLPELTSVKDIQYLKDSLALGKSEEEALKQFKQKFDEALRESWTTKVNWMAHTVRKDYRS
T2 sequence (P27986 whole entry partner): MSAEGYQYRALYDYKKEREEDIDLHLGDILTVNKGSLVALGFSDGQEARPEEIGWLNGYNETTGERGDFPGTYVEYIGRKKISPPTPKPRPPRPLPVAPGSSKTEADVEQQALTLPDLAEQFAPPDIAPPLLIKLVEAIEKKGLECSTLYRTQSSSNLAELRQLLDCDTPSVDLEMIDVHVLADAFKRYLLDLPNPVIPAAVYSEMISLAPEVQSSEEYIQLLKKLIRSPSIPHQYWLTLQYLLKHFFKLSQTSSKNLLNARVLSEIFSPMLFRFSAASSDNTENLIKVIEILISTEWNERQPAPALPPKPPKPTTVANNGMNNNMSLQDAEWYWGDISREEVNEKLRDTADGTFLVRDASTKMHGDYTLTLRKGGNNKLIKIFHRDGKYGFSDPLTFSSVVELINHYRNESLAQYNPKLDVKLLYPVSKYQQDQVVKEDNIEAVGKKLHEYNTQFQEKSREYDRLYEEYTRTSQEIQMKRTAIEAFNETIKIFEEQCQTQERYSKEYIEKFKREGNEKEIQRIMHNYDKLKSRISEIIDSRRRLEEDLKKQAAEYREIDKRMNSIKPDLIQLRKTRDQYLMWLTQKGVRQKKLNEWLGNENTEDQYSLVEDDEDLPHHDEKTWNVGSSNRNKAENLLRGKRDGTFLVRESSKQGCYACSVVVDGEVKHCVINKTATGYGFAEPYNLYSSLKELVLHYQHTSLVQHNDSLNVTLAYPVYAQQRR
T1 sequence (P42336 whole entry): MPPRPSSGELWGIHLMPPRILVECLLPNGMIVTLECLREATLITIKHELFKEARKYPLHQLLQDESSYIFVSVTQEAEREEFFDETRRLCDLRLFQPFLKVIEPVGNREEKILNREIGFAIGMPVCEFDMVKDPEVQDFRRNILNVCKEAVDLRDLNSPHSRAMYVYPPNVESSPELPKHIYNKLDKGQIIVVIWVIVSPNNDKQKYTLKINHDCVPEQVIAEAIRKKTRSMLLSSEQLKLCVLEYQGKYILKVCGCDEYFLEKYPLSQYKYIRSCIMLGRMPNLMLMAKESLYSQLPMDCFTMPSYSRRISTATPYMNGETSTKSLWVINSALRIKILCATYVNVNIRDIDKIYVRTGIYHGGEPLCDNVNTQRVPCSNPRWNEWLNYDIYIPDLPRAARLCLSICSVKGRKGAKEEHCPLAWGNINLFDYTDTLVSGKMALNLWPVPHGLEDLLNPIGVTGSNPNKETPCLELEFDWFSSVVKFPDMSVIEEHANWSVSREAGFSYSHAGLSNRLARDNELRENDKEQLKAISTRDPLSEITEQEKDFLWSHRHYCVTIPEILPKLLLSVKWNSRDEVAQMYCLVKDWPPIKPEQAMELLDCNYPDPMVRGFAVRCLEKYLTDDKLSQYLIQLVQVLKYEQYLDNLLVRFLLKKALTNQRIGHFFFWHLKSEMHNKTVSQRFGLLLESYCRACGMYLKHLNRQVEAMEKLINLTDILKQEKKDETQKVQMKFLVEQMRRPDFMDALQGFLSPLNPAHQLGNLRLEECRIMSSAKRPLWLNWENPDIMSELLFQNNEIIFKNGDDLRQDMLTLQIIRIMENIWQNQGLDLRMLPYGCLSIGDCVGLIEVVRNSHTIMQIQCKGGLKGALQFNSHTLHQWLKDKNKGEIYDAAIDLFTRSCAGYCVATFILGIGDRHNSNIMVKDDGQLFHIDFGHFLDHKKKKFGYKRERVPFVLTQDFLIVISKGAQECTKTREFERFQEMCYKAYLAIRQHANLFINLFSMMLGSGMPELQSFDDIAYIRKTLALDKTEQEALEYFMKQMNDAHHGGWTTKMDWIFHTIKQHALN
T1 sequence (P27986 2-724 partner limits assumed): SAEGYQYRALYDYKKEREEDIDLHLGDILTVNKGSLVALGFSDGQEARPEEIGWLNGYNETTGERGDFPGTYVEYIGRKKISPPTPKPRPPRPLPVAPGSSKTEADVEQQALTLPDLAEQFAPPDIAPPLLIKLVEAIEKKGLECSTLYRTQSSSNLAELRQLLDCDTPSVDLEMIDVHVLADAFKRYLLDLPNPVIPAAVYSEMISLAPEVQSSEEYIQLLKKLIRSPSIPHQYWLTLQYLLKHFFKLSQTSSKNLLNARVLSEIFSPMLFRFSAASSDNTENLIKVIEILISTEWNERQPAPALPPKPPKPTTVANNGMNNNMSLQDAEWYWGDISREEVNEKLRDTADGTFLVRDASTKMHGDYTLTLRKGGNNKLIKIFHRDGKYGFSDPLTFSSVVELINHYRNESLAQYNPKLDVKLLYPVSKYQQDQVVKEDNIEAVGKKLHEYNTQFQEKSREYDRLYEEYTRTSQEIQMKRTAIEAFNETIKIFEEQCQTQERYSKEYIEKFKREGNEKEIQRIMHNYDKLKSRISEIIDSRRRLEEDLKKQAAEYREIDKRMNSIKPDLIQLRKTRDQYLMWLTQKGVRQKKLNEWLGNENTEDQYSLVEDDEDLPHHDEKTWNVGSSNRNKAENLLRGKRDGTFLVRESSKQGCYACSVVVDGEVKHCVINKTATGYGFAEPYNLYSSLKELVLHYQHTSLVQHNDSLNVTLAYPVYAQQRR
T4 sequence (O00329 whole entry): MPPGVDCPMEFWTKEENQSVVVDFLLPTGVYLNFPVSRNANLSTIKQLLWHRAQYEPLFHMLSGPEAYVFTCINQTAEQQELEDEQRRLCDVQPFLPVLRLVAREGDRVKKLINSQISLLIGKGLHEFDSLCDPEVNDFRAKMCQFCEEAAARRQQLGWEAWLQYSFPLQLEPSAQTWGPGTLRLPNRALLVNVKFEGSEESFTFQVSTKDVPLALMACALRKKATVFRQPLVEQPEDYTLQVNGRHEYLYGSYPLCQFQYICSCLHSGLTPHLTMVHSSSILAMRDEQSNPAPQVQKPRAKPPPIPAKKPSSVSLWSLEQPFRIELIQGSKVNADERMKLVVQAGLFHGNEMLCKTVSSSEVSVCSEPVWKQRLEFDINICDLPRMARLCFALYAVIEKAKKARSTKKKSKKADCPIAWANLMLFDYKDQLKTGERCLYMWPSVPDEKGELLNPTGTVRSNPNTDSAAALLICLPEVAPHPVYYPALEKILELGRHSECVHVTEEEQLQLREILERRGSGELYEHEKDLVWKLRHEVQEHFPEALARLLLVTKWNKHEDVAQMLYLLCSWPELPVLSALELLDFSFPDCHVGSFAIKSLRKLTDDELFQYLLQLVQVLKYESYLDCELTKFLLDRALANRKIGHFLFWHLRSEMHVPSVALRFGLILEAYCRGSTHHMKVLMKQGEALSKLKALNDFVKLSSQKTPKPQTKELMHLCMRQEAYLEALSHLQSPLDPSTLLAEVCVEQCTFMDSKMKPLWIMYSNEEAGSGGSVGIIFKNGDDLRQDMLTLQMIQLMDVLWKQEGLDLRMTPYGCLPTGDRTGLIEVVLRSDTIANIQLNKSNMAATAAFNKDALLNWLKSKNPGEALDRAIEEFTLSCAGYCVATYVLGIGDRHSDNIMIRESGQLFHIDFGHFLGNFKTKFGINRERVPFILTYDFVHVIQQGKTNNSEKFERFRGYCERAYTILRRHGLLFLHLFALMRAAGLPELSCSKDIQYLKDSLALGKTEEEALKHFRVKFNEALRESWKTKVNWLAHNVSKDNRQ
T4 sequence (P27986 whole entry partner): as the sequence (P27986 whole entry partner) above

SMILES | pIC50 [1] | pIC50 [2] | pIC50 [3] | pIC50 [4]
C[C@H](Nc1ncnc2[nH]ccc(=O)c12)c1cc2ccc(F)cc2nc1-c1ccccn1 [Example 9, (S)-4-(1-(7-fluoro-2-(pyridine-2-yl)quinoline-3-yl)ethylamino)pyrido[2,3-d]pyrimidine-5(8H)-one] | < 6.30 | < 6.30 | 6.30 to 8.00 | > 8.00
C[C@H](Nc1nc(N)nc2[nH]ccc(=O)c12)c1nc2ccc(F)cc2cc1-c1ccccn1 [Example 25, (S)-2-amino-4-((1-(6-fluoro-3-(pyridine-2-yl)quinoline-2-yl)ethyl)amino)pyrido[2,3-d]pyrimidine-5(8H)-one] | < 6.30 | < 6.30 | > 8.00 | > 8.00
C[C@H](Nc1ncnc2[nH]ccc(=O)c12)c1nc2ccc(F)cc2cc1-c1ccccn1 [Example 7-1, (S)-4-((1-(6-fluoro-3-(pyridine-2-yl)quinoline-2-yl)ethyl)amino)pyrido[2,3-d]pyrimidine-5(8H)-one] | < 6.30 | < 6.30 | < 6.30 | 6.30 to 8.00
C[C@H](Nc1ncnc2[nH]ccc(=O)c12)c1nc2ccc(F)cc2c(=O)n1-c1cccnc1 [Example 28, (S)-4-((1-(6-fluoro-4-oxo-3-(pyridine-3-yl)-3,4-dihydroquinazoline-2-yl)ethyl)amino)pyrido[2,3-d]pyrimidine-5(8H)-one] | < 6.30 | < 6.30 | < 6.30 | 6.30 to 8.00
CC(Nc1ncnc2[nH]ccc(=O)c12)c1nc2ccc(F)cc2cc1-c1ccccn1 (centres unmarked) [Example 7, 4-((1-(6-fluoro-3-(pyridine-2-yl)quinoline-2-yl)ethyl)amino)pyrido[2,3-d]pyrimidine-5(8H)-one] | < 6.30 | < 6.30 | < 6.30 | > 8.00
Nc1nc(N2CCC[C@H]2c2cc3cccc(Cl)c3c(=O)n2-c2ccccc2)c2c(=O)cc[nH]c2n1 [Example 16, (S)-2-amino-4-(2-(8-chloro-1-oxo-2-phenyl-1,2-dihydroisoquinoline-3-yl)pyrrolidine-1-yl)pyrido[2,3-d]pyrimidine-5(8H)-one] | < 6.30 | < 6.30 | 6.30 to 8.00 | 6.30 to 8.00
C[C@H](Nc1nc(N)nc2[nH]cnc(=O)c12)c1cc2ccccc2nc1-c1ccccc1 [Example 88, (S)-7-amino-5-((1-(2-phenylquinoline-3-yl)ethyl)amino)pyrimido[4,5-d]pyrimidine-4(1H)-one] | 6.30 to 8.00 | 6.30 to 8.00 | 6.30 to 8.00 | 6.30 to 8.00
C[C@H](Nc1ncnc2[nH]cc(Cl)c(=O)c12)c1nc2cccc(Cl)c2c(=O)n1-c1ccccc1 [Example 22, (S)-6-chloro-4-((1-(5-chloro-4-oxo-3-phenyl-3,4-dihydroquinazoline-2-yl)ethyl)amino)pyrido[2,3-d]pyrimidine-5(8H)-one] | < 6.30 | < 6.30 | 6.30 to 8.00 | > 8.00
C[C@H](Nc1ncnc2[nH]ccc(=O)c12)c1nc2cccc(Cl)c2c(=O)n1Cc1ccccc1Cl [Example 31, (S)-4-((1-(5-chloro-3-(2-chlorobenzyl)-4-oxo-3,4-dihydroquinazoline-2-yl)ethyl)amino)pyrido[2,3-d]pyrimidine-5(8H)-one] | < 6.30 | < 6.30 | < 6.30 | 6.30 to 8.00
O=c1cc[nH]c2ncnc(N3CCC[C@H]3c3nc4cccc(Cl)c4c(=O)n3-c3ccccc3)c12 [Example 13, (S)-4-(2-(5-chloro-4-oxo-3-phenyl-3,4-dihydroquinazoline-2-yl)pyrrolidine-1-yl)pyrido[2,3-d]pyrimidine-5(8H)-one] | < 6.30 | < 6.30 | 6.30 to 8.00 | > 8.00

The remaining lines, values ahead:

pIC50 [1] | pIC50 [2] | pIC50 [3] | pIC50 [4] | SMILES
< 6.30 | < 6.30 | < 6.30 | < 6.30 | CCCN1CNc2ncnc(N[C@@H](C)c3cc4cccc(Cl)c4c(=O)n3-c3ccccc3)c2C1=O [Example 61, (S)-5-(1-(8-chloro-1-oxo-2-phenyl-1,2-dihydroisoquinoline-3-yl)ethylamino)-3-propyl-2,3-dihydropyrimido[4,5-d]pyrimidine-4(1H)-one]
< 6.30 | 6.30 to 8.00 | 6.30 to 8.00 | > 8.00 | C[C@H](Nc1ncnc2[nH]ccc(=O)c12)c1cc2cccc(Cl)c2c(=O)n1-c1ccccc1 [Example 5, (S)-4-((1-(8-chloro-1-oxo-2-phenyl-1,2-dihydroisoquinoline-3-yl)ethyl)amino)pyrido[2,3-d]pyrimidine-5(8H)-one]
< 6.30 | < 6.30 | 6.30 to 8.00 | > 8.00 | C[C@H](Nc1ncnc2[nH]cc(Cl)c(=O)c12)c1cc2cccc(Cl)c2c(=O)n1-c1ccccc1 [Example 23, (S)-6-chloro-4-((1-(8-chloro-1-oxo-2-phenyl-1,2-dihydroisoquinoline-3-yl)ethyl)amino)pyrido[2,3-d]pyrimidine-5(8H)-one]
< 6.30 | < 6.30 | < 6.30 | < 6.30 | C[C@H](Nc1ncnc2[nH]cc(C#N)c(=O)c12)c1cc2cccc(Cl)c2c(=O)n1-c1ccccc1 [Example 19, (S)-4-((1-(8-chloro-1-oxo-2-phenyl-1,2-dihydroisoquinoline-3-yl)ethyl)amino)-5-oxo-5,8-dihydropyrido[2,3-d]pyrimidine-6-carbonitrile]
< 6.30 | < 6.30 | 6.30 to 8.00 | > 8.00 | C[C@H](Nc1ncnc2c1C(=O)N(C)CN2)c1c(Cl)c2cccc(Cl)c2c(=O)n1-c1ccccc1 [Example 40, (S)-5-((1-(4,8-dichloro-1-oxo-2-phenyl-1,2-dihydroisoquinoline-3-yl)ethyl)amino)-3-methyl-2,3-dihydropyrimido[4,5-d]pyrimidine-4(1H)-one]
6.30 to 8.00 | 6.30 to 8.00 | 6.30 to 8.00 | > 8.00 | C[C@H](Nc1nc(N)nc2[nH]ccc(=O)c12)c1cc2cccc(Cl)c2c(=O)n1-c1ccccc1 [Example 15, (S)-2-amino-4-((1-(8-chloro-1-oxo-2-phenyl-1,2-dihydroisoquinoline-3-yl)ethyl)amino)pyrido[2,3-d]pyrimidine-5(8H)-one]
< 6.30 | < 6.30 | 6.30 to 8.00 | 6.30 to 8.00 | Cc1c[nH]c2ncnc(N[C@@H](C)c3cc4cccc(Cl)c4c(=O)n3-c3ccccc3)c2c1=O [Example 17, (S)-4-((1-(8-chloro-1-oxo-2-phenyl-1,2-dihydroisoquinoline-3-yl)ethyl)amino)-6-methylpyrido[2,3-d]pyrimidine-5(8H)-one]

Source: patent US10526337B2, “Heteroaryl derivative or pharmaceutically acceptable salt thereof, preparation method therefor, and pharmaceutical composition for preventing or treating diseases associated with PI3 kinases, containing same as active ingredient” (KOREA RESEARCH INSTITUTE OF CHEMICAL TECHNOLOGY, priority 2015, dated 2020)
